Measured values as given in US20080221161A1, “HETEROCYCLIC MODULATORS OF TGR5 FOR TREATMENT OF DISEASE” (KALYPSYS, INC., priority 2007, published 2008).

Target: T1, human TGR5 (Homo sapiens, UniProt Q8TDU6)
T1 construct: expressed in transfected cells; host or cells: HEK-293 cells, stably transfected (pcDNA 3.1, Fugene6, geneticin selection)
T1 sequence (Q8TDU6 1-330): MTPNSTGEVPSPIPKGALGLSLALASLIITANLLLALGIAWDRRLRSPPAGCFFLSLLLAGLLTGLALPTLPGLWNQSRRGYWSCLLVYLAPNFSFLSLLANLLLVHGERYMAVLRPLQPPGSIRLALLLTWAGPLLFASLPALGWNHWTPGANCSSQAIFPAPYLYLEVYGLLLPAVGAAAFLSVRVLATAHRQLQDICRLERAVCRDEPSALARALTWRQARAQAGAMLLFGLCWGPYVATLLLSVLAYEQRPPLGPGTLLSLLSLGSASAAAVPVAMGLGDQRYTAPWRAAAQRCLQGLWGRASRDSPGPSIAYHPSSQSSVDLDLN
Test: cAMP production assay in HEK293-TGR5 cells
Type: cell-based
Settings: HEK293 cells stably expressing human TGR5; 30 minutes stimulation; LANCE cAMP TR-FRET; read-out: cAMP Production in 293-TGR5 Cells EC50
Protocol: HEK293 cells stably expressing TGR5 (HEK293-TGR5) were established by stably transfecting HEK-293 cells with an expression vector (pcDNA 3.1, Invetrogen) inserted with human TGR5 cDNA using Fugene6 (Roche, Indianapolis, Ind.) according to conventional methods. Cells were grown in DMEM (invitrogen, Carlsbad, Calif.) supplemented with 10% FBS, 1% penicillin/streptomycin under geneticin selection. The presence of TGR5 transcripts in these cells was confirmed using branched DNA (bDNA, Genospectra, Inc., Fremont Calif.) following the manufacturer's protocol and using specific probes for human TGR5. cAMP production assay was performed in high throughput 1536 well format using LANCE cAMP detection kit (Perkin Elmer Inc., Boston, Mass.) according to the manufacturer's protocol. Briefly, HEK293-TGR5 cells were harvested using non-enzymatic cell dissociation buffer (Invitrogen, Carlsbad, Calif.) and suspended in DMEM supplemented with 0.1% FBS at a density of 800,000 cells/ml. Alexa antibody was added to the cell suspension, and 4 ul of the mixture was dispensed in white opaque tissue culture treated Greiner 1536 well plates (USA Scientific, Inc., Ocala, Fla.). After an overnight incubation at 37C in an atmosphere of 10% CO2 and 95% humidity, 1 ul of 5 mM IBMX (Sigma, St. Louis, Mo.) solution in DMEM was dispensed for a final concentration of 1 mM. Cells were then stimulated with test compounds for 30 minutes, after which time 5 ul of detection reagent was added and incubated for 1-7 hrs at room temperature. TR-FRET signal was detected using the Viewlux (Perkin Elmer Inc., Boston Mass.). EC50 values were determined using Graph Pad Prizm analysis (GraphPad Software, Inc).

| SMILES | EC50 [µM] |
| --- | --- |
| COc1cc2nc(-c3ccsc3)c(CNCc3ccc(C(F)(F)F)cc3)cc2cc1O [Example 122, 7-Methoxy-2-(thiophen-3-yl)-3-((4-(trifluoromethyl)benzylamino)methyl)quinolin-6-ol] | > 10 |
| COc1ccc2cc(C(=O)NCc3ccc(C(F)(F)F)cc3)c(-c3ccsc3)nc2c1 [Example 18, 7-methoxy-2-(thiophen-3-yl)-N-(4-(trifluoromethyl)benzyl)quinoline-3-carboxamide] | > 10 |
| COc1ccc2cc(CNCc3ccc(C(F)(F)F)cc3)c(-c3ccsc3)nc2c1 [Example 1, 1-(7-methoxy-2-(thiophen-3-yl)quinolin-3-yl)-N-(4-(trifluoromethyl)benzyl)methanamine] | > 10 |
| CSc1ccc2cc(CNCCc3ccc(Br)cc3)c(-c3ccsc3)nc2c1 [Example 39, 2-(4-Bromophenyl)-N-((7-(methylthio)-2-(thiophen-3-yl)quinolin-3-yl)methyl)ethanamine] | < 10 |
| COc1ccc2cc(CNCCc3ccc(Cl)c(Cl)c3)c(-c3ccsc3)nc2c1 [Example 61, 2-(3,4-Dichlorophenyl)-N-((7-methoxy-2-(thiophen-3-yl)quinolin-3-yl)methyl)ethanamine] | < 10 |
| CCOc1ccc2cc(CNCc3ccc(C(F)(F)F)cc3)c(-c3ccsc3)nc2c1 [Example 51, 1-(7-Ethoxy-2-(thiophen-3-yl)quinolin-3-yl)-N-(4-(trifluoromethyl)benzyl)methanamine] | < 10 |
| Oc1ccc2cc(CNCCc3ccc(Br)cc3)c(-c3ccco3)nc2c1 [Example 103, 3-((4-Bromophenethylamino)methyl)-2-(furan-2-yl)quinolin-7-ol] | > 10 |
| COc1cc2cc(CNCCc3ccc(Br)cc3)c(-c3ccsc3)nc2cc1F [Example 125, 2-(4-Bromophenyl)-N-((7-fluoro-6-methoxy-2-(thiophen-3-yl)quinolin-3-yl)methyl)ethanamine] | > 10 |
| Cc1c(CNCCc2ccc(Br)cc2)c(-c2ccsc2)nc2cc(O)ccc12 [Example 120, 3-((4-Bromophenethylamino)methyl)-4-methyl-2-(thiophen-3-yl)quinolin-7-ol] | > 10 |
| FC(F)(F)Oc1ccc2cc(CNCc3ccc(C(F)(F)F)cc3)c(-c3cccnc3)nc2c1 [Example 15, 1-(2-(Pyridin-3-yl)-7-(trifluoromethoxy)quinolin-3-yl)-N-(4-(trifluoromethyl)benzyl)-methanamine] | < 10 |
| COc1ccc2cc(CNCc3ccncc3)c(-c3ccsc3)nc2c1 [Example 70, 1-(7-Methoxy-2-(thiophen-3-yl)quinolin-3-yl)-N-(pyridin-4-ylmethyl)methanamine] | > 10 |
| COc1ccc2cc(CNCCc3ccc(Br)cc3)c(OC)nc2c1 [Example 148, 2-(4-Bromophenyl)-N-((2,7-dimethoxyquinolin-3-yl)methyl)ethanamine] | > 10 |
| Oc1ccc2cc(CNCCc3ccc(Cl)cc3)c(-c3ccoc3)nc2c1 [Example 118, 3-((4-Chlorophenethylamino)methyl)-2-(furan-3-yl)quinolin-7-ol] | > 10 |
| COc1ccc2cc(CNCCc3ccc(Cl)cc3)c(-c3cccnc3)nc2c1 [Example 7, 2-(4-Chlorophenyl)-N-((7-methoxy-2-(pyridin-3-yl)quinolin-3-yl)methyl)ethanamine] | < 10 |
| COc1ccc2cc(CNCc3ccc(N(C)C)cc3)c(-c3cccnc3)nc2c1 [Example 11, 4-(((7-Methoxy-2-(pyridin-3-yl)quinolin-3-yl)methylamino)methyl)-N,N-dimethylaniline] | < 10 |
| COc1ccc2cc(CNCc3ccc(C(F)(F)F)cc3)c(-c3ccccc3F)nc2c1 [Example 24, 1-(2-(2-Fluorophenyl)-7-methoxyquinolin-3-yl)-N-(4-(trifluoromethyl)benzyl)methanamine] | > 10 |
| COc1ccc2cc(CNCCc3ccc(Br)cc3)c(-c3csc4ccccc34)nc2c1 [Example 73, N-((2-(Benzo[b]thiophen-3-yl)-7-methoxyquinolin-3-yl)methyl)-2-(4-bromophenyl)ethanamine] | < 10 |
| COc1ccc2cc(CNCc3ccc(C(F)(F)F)cc3)c(Oc3cccnc3)nc2c1 [Example 83, 1-(7-methoxy-2-(pyridin-3-yloxy)quinolin-3-yl)-N-(4-(trifluoromethyl)benzyl)methanamine] | < 10 |

Continued, values first:

| EC50 [µM] | SMILES |
| --- | --- |
| < 10 | CNC(=O)c1ccc2cc(CNCCc3ccc(Br)cc3)c(-c3ccsc3)nc2c1 [Example 140, 3-((4-Bromophenethylamino)methyl)-N-methyl-2-(thiophen-3-yl)quinoline-7-carboxamide] |
| > 10 | COc1ccc2cc(CNCCc3ccc(Cl)cc3)c(-c3ccoc3)nc2c1 [Example 117, 2-(4-Chlorophenyl)-N-((2-(furan-3-yl)-7-methoxyquinolin-3-yl)methyl)ethanamine] |
| > 10 | COc1ccc2cc(CNCCc3ccc(Cl)cc3)c(Sc3ccncc3)nc2c1 [Example 95, 2-(4-Chlorophenyl)-N-((7-methoxy-2-(pyridin-4-ylthio)quinolin-3-yl)methyl)ethanamine] |
| > 10 | COc1ccc2nc(-c3ccsc3)c(CNCc3ccc(C(F)(F)F)cc3)cc2c1 [Example 26, 1-(6-Methoxy-2-(thiophen-3-yl)quinolin-3-yl)-N-(4-(trifluoromethyl)benzyl)methanamine] |
| > 10 | FC(F)(F)Oc1ccc2cc(CNCCc3ccc(Br)cc3)c(-c3cccnc3)nc2c1 [Example 16, 2-(4-Bromophenyl)-N-((2-(pyridin-3-yl)-7-(trifluoromethoxy)quinolin-3-yl)methyl)ethanamine] |
| < 10 | C[C@@H](NCc1cc2ccc(O)cc2nc1-c1ccsc1)c1ccc(Br)cc1 [Example 134, (R)-3-((1-(4-Bromophenyl)ethylamino)methyl)-2-(thiophen-3-yl)quinolin-7-ol] |
| < 10 | FC(F)(F)Oc1ccc2cc(CNCc3ccc(C(F)(F)F)cc3)c(-c3ccsc3)nc2c1 [Example 12, 1-(2-(Thiophen-3-yl)-7-(trifluoromethoxy)quinolin-3-yl)-N-(4-(trifluoromethyl)benzyl)methanamine] |
| > 10 | COc1ccc2cc(CNCCc3c[nH]c4ccc(O)cc34)c(-c3ccncc3)nc2c1 [Example 93, 3-(2-((7-Methoxy-2-(pyridin-4-yl)quinolin-3-yl)methylamino)ethyl)-1H-indol-5-ol] |
| < 10 | COc1ccc2cc(CNCCOc3cccc4ncccc34)c(-c3ccsc3)nc2c1 [Example 121, N-((7-Methoxy-2-(thiophen-3-yl)quinolin-3-yl)methyl)-2-(quinolin-5-yloxy)ethanamine] |
| < 10 | COc1ccc2cc(CNCc3ccc(Cl)c(Cl)c3)c(-c3ccsc3)nc2c1 [Example 66, N-(3,4-Dichlorobenzyl)-1-(7-methoxy-2-(thiophen-3-yl)quinolin-3-yl)methanamine] |
| < 10 | COc1ccc2cc(CNc3ccccc3)c(-c3ccsc3)nc2c1 [Example 68, N-((7-Methoxy-2-(thiophen-3-yl)quinolin-3-yl)methyl)aniline] |
| < 10 | COc1ccc2cc(CN[C@H](C)c3ccc(Br)cc3)c(-c3ccsc3)nc2c1 [Example 130, (R)-1-(4-Bromophenyl)-N-((7-methoxy-2-(thiophen-3-yl)quinolin-3-yl)methyl)ethanamine] |
| > 10 | FC(F)(F)Oc1ccc2cc(CNCCc3ccc(Cl)cc3)c(-c3ccsc3)nc2c1 [Example 13, 2-(4-Chlorophenyl)-N-((2-(thiophen-3-yl)-7-(trifluoromethoxy)quinolin-3-yl)methyl)ethanamine] |
| > 10 | COc1ccc2cc(CN(CCc3ccc(Cl)cc3)S(C)(=O)=O)c(-c3ccsc3)nc2c1 [Example 33, N-(4-Chlorophenethyl)-N-((7-methoxy-2-(thiophen-3-yl)quinolin-3-yl)methyl)methanesulfonamide] |
| > 10 | COc1ccc2cc(CN(CCc3ccc(Cl)cc3)C(C)=O)c(-c3ccsc3)nc2c1 [Example 32, N-(4-Chlorophenethyl)-N-((7-methoxy-2-(thiophen-3-yl)quinolin-3-yl)methyl)acetamide] |
| < 10 | COc1ccc2cc(CNCCc3ccc(F)cc3)c(-c3cccnc3)nc2c1 [Example 8, 2-(4-Fluorophenyl)-N-((7-methoxy-2-(pyridin-3-yl)quinolin-3-yl)methyl)ethanamine] |
| < 10 | Oc1ccc2cc(CNCCc3ccc(Br)cc3)c(-c3ccccc3)nc2c1 [Example 100, 3-((4-Bromophenethylamino)methyl)-2-phenylquinolin-7-ol] |
